Results as given in patent publication US8273775B2, “Non-steroidal brassinosteroid mimetic” (priority 2006, dated 2012).

Tested on: gene expression in Col-0 seedling shoots
Assay: Microarray analysis (ATH1 Affymetrix) after BL or abrasin treatment
Format: in vivo, Arabidopsis
Conditions: 30 min
Description: FIG. 14: Clustering of gene expression profiles by QT-clust analysis. Clusters illustrating the major patterns of the data sets. Points: BIK-30: 30 μM abrasin 30 min; BL-30: 1 μM brassinolide 30 min; DMSO-30: control DMSO 30 min; BIK-120: 30 μM abrasin 120 min; BL-120: 1 μM brassinolide 120 min; DMSO-120: control DMSO 120 min.
Col-0 seeds were germinated vertically on ½ MS medium for 7 days under 16 h light/8 h dark cycles. The seedlings were overlaid with liquid ½ MS medium containing 1 μM brassinolide (BL, Fuji Chemical Industries, Ltd., Toyama, Japan), 30 μM abrasin (BIK, ChemBridge Corporation) and DMSO and treated for 30 and 120 min. The shoot parts were collected for RNA isolation. All sampling points were performed in three independent experiments. RNA was extracted using RNeasy kit (Qiagene). […] total RNA per array was used to hybridise the ATH1 Affymetrix Arabidopsis arrays according to standard procedure. The overrepresentation analyses were performed using BiNGO software (Maere et al., 2005).
We performed a microarray analysis using the Arabidopsis whole genome chip (Affymetix) to determine whether abrasin activated the expression of BR-inducible genes at transcriptional level. Wild-type Col-0 seedlings were exposed to 1 μM BL, 30 μM ABRASIN and DMSO (mock-treatment) for two time points (30 min and 120 min) and the shoot parts were collected for RNA isolation. The analysis of the variance of the normalized gene expression data took in account the variability parameters affecting the expression level: type of hormone treatment, duration of treatment and the interaction between these two.

## CC(C)[C@H](C)[C@@H](O)[C@H](O)[C@@H](C)[C@H]1CC[C@H]2[C@@H]3COC(=O)[C@H]4C[C@H](O)[C@H](O)C[C@]4(C)[C@H]3CC[C@]12C [BL, brassinolide, reference compound]
  Fold-change AT4G16563 aspartyl protease family protein: 1.44
  Fold-change AT4G16670 expressed protein: 0.78
  Fold-change AT4G16780 homeobox-leucine zipper protein 4 (HAT4)/HD-ZIP protein: 0.62
  Fold-change AT4G17250 expressed protein: 0.86
  Fold-change AT4G17460 homeobox-leucine zipper protein 1 (HAT1)/HD-ZIP protein 1: 0.54
  Fold-change AT4G21510 F-box family protein: 1.47
  Fold-change AT4G23030 MATE efflux protein-related: 1.37
  Fold-change AT4G23070 rhomboid family protein: 1.02
  Fold-change AT4G23810 WRKY family transcription factor: 0.71
  Fold-change AT4G24160 hydrolase, alpha/beta fold family protein: 1.13
  Fold-change AT4G25620 hydroxyproline-rich glycoprotein family protein: 0.87
  Fold-change AT4G25780 pathogenesis-related protein: 0.74
  Fold-change AT4G27970 C4-dicarboxylate transporter/malic acid transport family protein: 1.20
  Fold-change AT4G28240 wound-responsive protein-related: 0.77
  Fold-change AT4G28490 leucine-rich repeat transmembrane protein kinase, putative: 1.00
  Fold-change AT4G28703 expressed protein: 0.85
  Fold-change AT4G28780 GDSL-motif lipase/hydrolase family protein: 1.25
  Fold-change AT4G29070 expressed protein: 0.90
  Fold-change AT4G30080 transcriptional factor B3 family protein: 0.94
  Fold-change AT4G31020 expressed protein: 1.53
  Fold-change AT4G32280 auxin-responsive AUX/IAA family protein (IAA29): 0.66
  Fold-change AT4G33050 calmodulin-binding family protein: 0.99
  Fold-change AT4G33700 CBS domain-containing protein: 0.81
  Fold-change AT4G34610 homeodomain-containing protein: 0.86
  Fold-change AT4G36110 auxin-responsive protein: 2.35
  Fold-change AT4G36780 brassinosteroid signalling positive regulator-related: 0.71
  Fold-change AT4G37240 expressed protein: 1.23
  Fold-change AT4G37290 expressed protein: 0.90
  Fold-change AT4G37590 phototropic-responsive NPH3 family protein: 0.90
  Fold-change AT4G38840 auxin-responsive protein (SAUR14): 1.26
  Fold-change AT4G38850 auxin-responsive protein (SAUR-AC1): 1.43
  Fold-change AT4G38860 auxin-responsive protein (SAUR16): 1.38
  Fold-change AT4G39400 brassinosteroid insensitive 1 (BRI1): 0.96
  Fold-change AT5G02020 expressed protein: 0.99
  Fold-change AT5G05690 cytochrome P450 90A1 (CYP90A1) (CYP90) (CPD): 0.93
  Fold-change AT5G07690 myb family transcription factor (MYB29): 0.82
  Fold-change AT5G08130 basic helix-loop-helix (bHLH) family protein (BIM2): 0.79
  Fold-change AT5G12050 expressed protein: 0.73
  Fold-change AT5G13180 no apical meristem (NAM) family protein: 1.07
  Fold-change AT5G13740 sugar transporter family protein: 0.77
  Fold-change AT5G14730 expressed protein: 0.80
  Fold-change AT5G16200 50S ribosomal protein-related: 0.70
  Fold-change AT5G16980 NADP-dependent oxidoreductase: 1.15
  Fold-change AT5G18750 DNAJ heat shock N-terminal domain-containing protein: 1.03
  Fold-change AT5G19200 short-chain dehydrogenase/reductase (SDR) family protein: 1.22
  Fold-change AT5G19340 expressed protein: 0.68
  Fold-change AT5G24030 C4-dicarboxylate transporter/malic acid transport family protein: 1.43
  Fold-change AT5G24660 expressed protein: 1.33
  Fold-change AT5G25240 expressed protein: 1.21
  Fold-change AT5G25930 leucine-rich repeat family protein: 0.98
  Fold-change AT5G27350 sugar-porter family protein 1 (SFP1): 1.11
  Fold-change AT5G27670 histone H2A: 0.86
  Fold-change AT5G38310 expressed protein: 0.98
  Fold-change AT5G38990; AT5G39000 [AT5G38990, protein kinase family protein: 0.94
  Fold-change AT5G39050 transferase family protein: 1.35
  Fold-change AT5G39610 no apical meristem (NAM) family protein: 0.65
  Fold-change AT5G39970 expressed protein: 1.08
  Fold-change AT5G42830 transferase family protein: 0.87
  Fold-change AT5G47370 homeobox-leucine zipper protein 2 (HAT2): 0.94
  Fold-change AT5G48070 putative xyloglucan endotransglycosylase/hydrolase: 1.12
  Fold-change AT5G48540 33 kDa secretory protein-related: 1.01
  Fold-change AT5G51550 phosphate-responsive 1 family protein: 0.86
  Fold-change AT5G54490 calcium-binding EF-hand protein, putative: 0.37
  Fold-change AT5G54860 integral membrane transporter family protein: 0.92
  Fold-change AT5G55970 zinc finger (C3HC4-type RING finger) family protein: 1.03
  Fold-change AT5G56980 expressed protein: 0.75
  Fold-change AT5G57190 phosphatidylserine decarboxylase: 1.04
  Fold-change AT5G57780 expressed protein: 0.41
  Fold-change AT5G59080 expressed protein: 0.62
  Fold-change AT5G60200 Dof-type zinc finger domain-containing protein: 0.82
  Fold-change AT5G60270 lectin protein kinase family protein: 1.03
  Fold-change AT5G60630 expressed protein: 0.94
  Fold-change AT5G61600 encodes a member of the ERF (ethylene response factor): 0.46
  Fold-change AT5G62360 invertase/pectin methylesterase inhibitor family protein: 0.92
  Fold-change AT5G65310 homeobox-leucine zipper protein 5 (HB-5)/HD-ZIP transcription factor 5: 0.91
  Fold-change AT5G66420 expressed protein: 1.04
  Fold-change AT5G66590 allergen V5/Tpx-1-related family protein: 1.21
  Fold-change AT5G67450 zinc finger (C2H2 type) protein 1 (AZF1): 1.79
245479_at, Cluster 6
  Fold-change of gene AT4G16140 (proline-rich family protein): 0.83
245543_at, Cluster 7
  Fold-change of gene AT4G15260 (UDP-glucoronosyl/UDP-glucosyl transferase family protein): 1.01
245885_at, Cluster 5
  Fold-change of gene AT5G09440 (phosphate-responsive protein, putative): 0.58
246389_at, Cluster 10
  Fold-change of gene AT1G77380 (amino acid carrier): 0.94
246516_at, Cluster 5
  Fold-change of gene AT5G15740 (expressed protein): 0.95
247177_at, Cluster 5
  Fold-change of gene AT5G65300 (expressed protein): 0.25
247205_at, Cluster 10
  Fold-change of gene AT5G64890 (expressed protein): 0.97
247351_at, Cluster 9
  Fold-change of gene AT5G63790 (no apical meristem (NAM) family protein): 0.49
247444_at, Cluster 7
  Fold-change of gene AT5G62630 (expressed protein): 1.26
247601_at, Cluster 10
  Fold-change of gene AT5G60850 (Dof-type zinc finger domain-containing protein): 1.09
247704_at, Cluster 9
  Fold-change of gene AT5G59510 (expressed protein): 0.98
247774_at, Cluster 5
  Fold-change of gene AT5G58660 (oxidoreductase. 2OG-Fe(II) oxygenase family protein): 1.08
248190_at, Cluster 5
  Fold-change of gene AT5G54120 (expressed protein): 1.04
248191_at, Cluster 5
  Fold-change of gene AT5G54130 (calcium-binding EF hand family protein): 1.03
248282_at, Cluster 6
  Fold-change of gene AT5G52900 (expressed protein): 0.74
248646_at, Cluster 9
  Fold-change of gene AT5G49100 (expressed protein): 0.70
250012_x_at, Cluster 6
  Fold-change of gene AT5G18060 (auxin-responsive protein): 0.76
250493_at, Cluster 9
  Fold-change of gene AT5G09800 (U-box domain-containing protein): 0.80
250537_at, Cluster 8
  Fold-change of gene AT5G08565 (expressed protein): 1.06
250907_at, Cluster 5
  Fold-change of gene AT5G03670 (expressed protein): 0.60
251072_at, Cluster 5
  Fold-change of gene AT5G01740 (expressed protein): 0.53
251176_at, Cluster 10
  Fold-change of gene AT3G63380 (calcium-transporting ATPase): 0.87
251342_at, Cluster 9
  Fold-change of gene AT3G60690 (auxin-responsive family protein): 0.87
252586_at, Cluster 10
  Fold-change of gene AT3G45610 (Dof-type zinc finger domain): 0.90
252646_at, Cluster 5
  Fold-change of gene AT3G44610 (protein kinase family protein): 1.05
253255_at, Cluster 6
  Fold-change of gene AT4G34760 (auxin-responsive family protein): 0.81
253281_at, Cluster 7
  Fold-change of gene AT4G34138 (UDP-glucoronosyl/UDP-glucosyl transferase family protein): 1.17
253483_at, Cluster 5
  Fold-change of gene AT4G31910 (transferase family protein): 1.15
253617_at, Cluster 5
  Fold-change of gene AT4G30410 (expressed protein): 0.97
253629_at, Cluster 5
  Fold-change of gene AT4G30450 (glycine-rich protein): 0.88
253999_at, Cluster 9
  Fold-change of gene AT4G26200 (1-aminocyclopropane-1-carboxylate synthase): 0.29
255403_at, Cluster 6
  Fold-change of gene AT4G03400 (auxin-responsive GH3 family protein): 0.59
255443_at, Cluster 7
  Fold-change of gene AT4G02700 (sulfate transporter): 1.69
255926_at, Cluster 8
  Fold-change of gene AT1G22190 (AP2 domain-containing transcription factor): 0.83
256528_at, Cluster 6
  Fold-change of gene AT1G66140 (zinc finger (C2H2 type) family protein): 0.72
256762_at, Cluster 8
  Fold-change of gene AT3G25655 (expressed protein): 0.98
256818_at, Cluster 7
  Fold-change of gene AT3G21420 (oxidoreductase, 2OG-Fe(II) oxygenase family protein): 1.11
257066_at, Cluster 5
  Fold-change of gene AT3G18280 (protease inhibitor/seed storage/lipid transfer protein): 1.06
257506_at, Cluster 6
  Fold-change of gene AT1G29440 (auxin-responsive family protein): 0.69
257746_at, Cluster 5
  Fold-change of gene AT3G29200 (chorismate mutase, chloroplast (CM1)): 0.89
259364_at, Cluster 8
  Fold-change of gene AT1G13260 (DNA-binding protein RAV1 (RAV1)): 0.61
259773_at, Cluster 6
  Fold-change of gene AT1G29500 (auxin-responsive protein): 0.79
259783_at, Cluster 6
  Fold-change of gene AT1G29510 (auxin-responsive protein): 0.77
259784_at, Cluster 6
  Fold-change of gene AT1G29450 (auxin-responsive protein): 0.75
259787_at, Cluster 6
  Fold-change of gene AT1G29460 (auxin-responsive protein): 0.75
259875_s_at, Cluster 7
  Fold-change of gene AT1G76690; AT1G76680 ([AT1G76690, 12-oxophytodienoate reductase (OPR2)): 0.85
259985_at, Cluster 8
  Fold-change of gene AT1G76620 (expressed protein): 0.94
260243_at, Cluster 10
  Fold-change of gene AT1G63720 (expressed protein): 0.74
260727_at, Cluster 8
  Fold-change of gene AT1G48100 (glycoside hydrolase family 28 protein): 1.06
261023_at, Cluster 7
  Fold-change of gene AT1G12200 (flavin-containing monooxygenase family protein): 1.11
261203_at, Cluster 6
  Fold-change of gene AT1G12845 (expressed protein): 0.98
261768_at, Cluster 6
  Fold-change of gene AT1G15550 (gibberellin 3-beta-dioxygenase): 0.77
261892_at, Cluster 9
  Fold-change of gene AT1G80840 (WRKY family transcription factor): 0.27
262040_at, Cluster 6
  Fold-change of gene AT1G80080 (leucine-rich repeat family protein): 0.77
262050_at, Cluster 8
  Fold-change of gene AT1G80130 (expressed protein): 1.04
262505_at, Cluster 10
  Fold-change of gene AT1G21680 (expressed protein): 1.12
262543_at, Cluster 6
  Fold-change of gene AT1G34245 (expressed protein): 1.14
263126_at, Cluster 7
  Fold-change of gene AT1G78460 (SOUL heme-binding family protein): 0.88
264279_s_at, Cluster 7
  Fold-change of gene AT1G78820; AT1G78830 ([AT1G78820, curculin-like (mannose-binding) lectin family protein): 0.88
